Measured values from US20180028622A1, “TREATMENT OF OSTEOPOROSIS” (Entera Bio Ltd., priority 2015, published 2018).
Like-named read-outs stand apart in the source and are kept apart here.

Tests used:
[1] = Dissolution test of tablets in simulated gastric buffer, released SNAC by HPLC; format: physicochemical; conditions: tablet with 100 mg sodium bicarbonate vs tablet without; simulated gastric buffer pH 2.0, 37° C.
Method: The tablets were in a form of a homogeneous mixture.
Each tablet formulation was subjected to a dissolution test in 100 ml of simulated gastric buffer (without pepsin), pH 2.0, at 37° C., according to USP 23 Apparatus 2 (paddle) with 50 rotations per minute. The amount of released SNAC in each sample was determined chromatographically, using an HPLC apparatus with Cosmosil™ 5 C18-MS-II (4.6 ID×250 mm) column. Mobile phase consisted of 50% acetonitrile and 50% phosphoric acid solution (0.1%). Flow rate was 1 ml/minute and injection volume was 25 μl. Amount of released SNAC was calculated as a percentage of the amount of SNAC in the formulation.

[2] = Pharmacokinetic study of oral teriparatide tablet with water or sodium bicarbonate solution; format: in vivo, human; conditions: oral tablet 0.75 mg with 150 ml of 3 mg/ml sodium bicarbonate solution
Method: An open label comparative pharmacokinetic study was performed on ten healthy volunteers. On different visits, each volunteer received the same oral tablet containing 0.75 mg of teriparatide, a recombinant form of parathyroid hormone (1-34) (PTH(1-34)). In the first visit, the tablet was administered with 150 ml water, whereas in the second visit the tablet was administered with 150 ml of 3 mg/ml sodium bicarbonate aqueous solution.
The formulation was composed of teriparatide (0.75 mg), SNAC (sodium 8-N-(2-hydroxybenzoyl) aminocaprylate), soybean trypsin inhibitor (SBTI) and a small amount of magnesium stearate.
Tablets were administered in the morning after an 8-hour overnight fast. At each visit a standard meal was provided 3 hours after drug administration. […] There was a two week period between the two visits.
To determine PTH(1-34) concentrations, blood samples were drawn and PTH(1-34) levels were measured using an IDS-iSYS automated assay, using procedures described in Example 1 hereinabove. Relative absorption was determined based on the AUC (area under curve) parameter.

[3] = Phase I clinical study of oral teriparatide formulations vs subcutaneous injection, plasma PTH(1-34); format: in vivo, human
Method: A Phase I clinical study of exemplary oral formulations comprising teriparatide (parathyroid hormone (1-34)) was conducted at the Hadassah Clinical Research Center. 42 healthy volunteers were included throughout the study.
The formulation was composed of teriparatide (200, 400, 680, 1400 or 1800 μg), SNAC (sodium 8-N-(2-hydroxybenzoyl) aminocaprylate), soybean trypsin inhibitor and magnesium stearate.
Tablets were administered in the morning after an 8-hour overnight fast and immediately followed by 150 ml of water. At each visit a standard meal was provided 3 hours after drug administration.
To determine parathyroid hormone concentrations, blood samples (4 ml each) were drawn via an indwelling catheter from the forearm vein at predetermined time points. The cannula was flushed with 1.5 ml normal saline after each sampling. In addition, to avoid sample dilution, 1 ml of blood was drawn and discarded before the next sample. The blood samples were taken at following times: baseline (predose), 15 minutes, 30 minutes, 45 minutes, 60 minutes, 75 minutes, 90 minutes, 105 minutes, 2 hours, 3 hours, 4 hours and 5 hours post-administration. Each blood sample was collected into a single tube containing EDTA (ethylenediaminetetraacetic acid) and placed on ice. Within 15 minutes of blood collection, samples were centrifuged for 10 minutes at 4° C. (2500 rotations per minute) and the plasma was separated and divided into two or three aliquots. Each aliquot was transferred into appropriately labeled polypropylene tubes and stored at approximately −20° C. pending analysis. PTH(1-34) levels were measured using an IDS-iSYS automated assay for the measurement of intact PTH(1-34) in human plasma or serum.
Oral administration of teriparatide was performed as described hereinabove at doses of 200, 400, 680, 1400 or 1800 μg. The Cmax of PTH(1-34) for each orally administered dose was compared with the Cmax of PTH(1-34) for subcutaneous injection of 20 μg teriparatide.

[4] = Open label pharmacokinetic study of oral teriparatide tablet, two visits; format: in vivo, human; conditions: for Tmax: human, plasma, po, 0.75 mg; for Tmax / Cmax after 1st administration / Cmax after 2nd administration: oral tablet 0.75 mg teriparatide with SNAC and SBTI
Method: An open label comparative pharmacokinetic study was performed in healthy volunteers over the course of 3 months. Each volunteer received—in each of two visits—the same oral tablet containing 0.75 mg of teriparatide, a recombinant form of parathyroid hormone (1-34).
The formulation was composed of teriparatide (0.75 mg), SNAC (sodium 8-N-(2-hydroxybenzoyl)aminocaprylate), soybean trypsin inhibitor (SBTI) and a small amount of magnesium stearate.
Tablets were administered in the morning after an 8-hour overnight fast and immediately followed by 150 ml of water. At each visit a standard meal was provided 3 hours after drug administration. […] There was a two weeks period between the visits.
To determine parathyroid hormone(1-34) (PTH(1-34)) concentrations, blood samples (4 ml each) were drawn via an indwelling catheter from the forearm vein at predetermined time points during each visit. The cannula was flushed with 1.5 ml normal saline after each sampling. In addition, to avoid sample dilution, 1 ml of blood was drawn and discarded before the next sample. The blood samples were taken at following times: baseline (predose), 10 minutes, 15 minutes, 20 minutes, 30 minutes, 45 minutes, 60 minutes, 75 minutes, 90 minutes, 105 minutes, 2 hours, 3 hours, 4 hours and 5 hours post-administration. Each blood sample was collected into a single tube containing EDTA (ethylenediaminetetraacetic acid) and placed on ice. Within 15 minutes of blood collection, samples were centrifuged for 10 minutes at 4° C. (2500 rotations per minute) and the plasma was separated and divided into two or three aliquots. Each aliquot was transferred into appropriately labeled polypropylene tubes and stored at approximately −20° C. pending analysis. PTH(1-34) levels were measured using an IDS-iSYS automated assay for the measurement of intact PTH(1-34) in human plasma or serum.

[5] = tested on: cAMP, a known marker of PTH activity; experiment: Plasma cAMP levels after oral or subcutaneous teriparatide; format: in vivo, human
Method: In addition, plasma levels of cAMP, a known marker of PTH activity, were determined in order to confirm biological activity of administered PTH. cAMP plasma levels were measured following oral administration of 680 μg teriparatide or subcutaneous injection of 20 μg teriparatide, as described hereinabove.

In the case of `O=C(O)CCCCCCCNC(=O)c1ccccc1O` [SNAC, sodium 8-N-(2-hydroxybenzoyl)aminocaprylate], the “dissolution (release) of SNAC from tablet” value [1] is reported as “considerably enhanced the dissolution”.
In the case of `CC[C@H](C)[C@H](NC(=O)[C@H](CCC(=O)O)NC(=O)[C@H](CO)NC(=O)[C@@H](NC(=O)[C@@H](N)CO)C(C)C)C(=O)N[C@@H](CCC(N)=O)C(=O)N[C@@H](CC(C)C)C(=O)N[C@@H](CCSC)C(=O)N[C@@H](Cc1cnc[nH]1)C(=O)N[C@@H](CC(N)=O)C(=O)N[C@@H](CC(C)C)C(=O)NCC(=O)N[C@@H](CCCCN)C(=O)N[C@@H](Cc1cnc[nH]1)C(=O)N[C@@H](CC(C)C)C(=O)N[C@@H](CC(N)=O)C(=O)N[C@@H](CO)C(=O)N[C@@H](CCSC)C(=O)N[C@@H](CCC(=O)O)C(=O)N[C@@H](CCCN=C(N)N)C(=O)N[C@H](C(=O)N[C@@H](CCC(=O)O)C(=O)N[C@@H](Cc1c[nH]c2ccccc12)C(=O)N[C@@H](CC(C)C)C(=O)N[C@@H](CCCN=C(N)N)C(=O)N[C@@H](CCCCN)C(=O)N[C@@H](CCCCN)C(=O)N[C@@H](CC(C)C)C(=O)N[C@@H](CCC(N)=O)C(=O)N[C@@H](CC(=O)O)C(=O)N[C@H](C(=O)N[C@@H](Cc1cnc[nH]1)C(=O)N[C@@H](CC(N)=O)C(=O)N[C@@H](Cc1ccccc1)C(=O)O)C(C)C)C(C)C` [teriparatide], the “increase of absorption (AUC) in comparison with co-administration with water” value [2] is reported as “about 35%”, the “decline of PTH levels following oral administration compared with subcutaneous administration” value ([3]; oral 1800 μg vs subcutaneous 20 μg) is reported as “declined considerably more rapidly” and the “Cmax of PTH(1-34) following oral administration, relation to dose” value ([3]; oral 200, 400, 680, 1400 or 1800 μg) is reported as “proportional to the dose”. For the same compound, the “oral dose providing a Cmax equivalent to subcutaneous administration of 20 μg teriparatide” value ([3]; oral tablet with SNAC and soybean trypsin inhibitor) was “roughly 750 μg”, the Tmax ([4]; subject A, fasted, plasma PTH(1-34), read-out: Tmax after 1st administration (converted)) was 15 min and the Tmax ([4]; subject A, two weeks after 1st, read-out: Tmax after 2nd administration (converted)) was 20 min. For the same compound, the Tmax ([4]; subject B, fasted, plasma PTH(1-34), read-out: Tmax after 1st administration (converted)) was 10 min, the Tmax ([4]; subject B, two weeks after 1st, read-out: Tmax after 2nd administration (converted)) was 20 min and the Tmax ([4]; subject C, fasted, plasma PTH(1-34), read-out: Tmax after 1st administration (converted)) was 10 min. For the same compound, the Tmax ([4]; subject C, two weeks after 1st, read-out: Tmax after 2nd administration (converted)) was 20 min, the “time for plasma levels to return to baseline levels after tablet administration” value ([4]; oral tablet 0.75 mg) was ≤ 60 min and the “Cmax between different administrations in a given subject” value ([4]; oral tablet 0.75 mg, two administrations two weeks apart) was “relatively constant”. For the same compound, the “Cmax after 1st administration” value ([4]; subject A, fasted, plasma PTH(1-34)) was 195 picogram/ml, the “Cmax after 2nd administration” value ([4]; subject A, two weeks after 1st) was 283 picogram/ml and the “Cmax after 1st administration” value ([4]; subject B, fasted, plasma PTH(1-34)) was 124 picogram/ml. The “Cmax after 2nd administration” value ([4]; subject B, two weeks after 1st) was 116 picogram/ml, the “Cmax after 1st administration” value ([4]; subject C, fasted, plasma PTH(1-34)) was 35 picogram/ml and the “Cmax after 2nd administration” value ([4]; subject C, two weeks after 1st) was 36 picogram/ml. For the same compound, the “plasma cAMP levels” value ([5]; oral administration of 680 μg) was “increased plasma cAMP levels to a similar degree” and the “plasma cAMP levels” value ([5]; subcutaneous administration of 20 μg) was “increased plasma cAMP levels to a similar degree”.
